Data on 13 substances can be found in patent US20240247080A1, “GLP1/GIP/NPY2 RECEPTOR TRIPLE AGONISTS” (Boehringer Ingelheim International GmbH, priority 2022, published 2024).

Format in all cases: cell-based
Common to all, as to details: CreLuc reporter gene assay
(In general: Reporter assays use an easily measured gene product as a stand-in for the process of interest.)

The target in one assay is T1, hGLP1R (Homo sapiens, UniProt P43220).
T1 construct: expressed in transfected cells; host or cells: HEK-293 cells carrying a CRE-luciferase reporter gene
T1 sequence (P43220 24-463): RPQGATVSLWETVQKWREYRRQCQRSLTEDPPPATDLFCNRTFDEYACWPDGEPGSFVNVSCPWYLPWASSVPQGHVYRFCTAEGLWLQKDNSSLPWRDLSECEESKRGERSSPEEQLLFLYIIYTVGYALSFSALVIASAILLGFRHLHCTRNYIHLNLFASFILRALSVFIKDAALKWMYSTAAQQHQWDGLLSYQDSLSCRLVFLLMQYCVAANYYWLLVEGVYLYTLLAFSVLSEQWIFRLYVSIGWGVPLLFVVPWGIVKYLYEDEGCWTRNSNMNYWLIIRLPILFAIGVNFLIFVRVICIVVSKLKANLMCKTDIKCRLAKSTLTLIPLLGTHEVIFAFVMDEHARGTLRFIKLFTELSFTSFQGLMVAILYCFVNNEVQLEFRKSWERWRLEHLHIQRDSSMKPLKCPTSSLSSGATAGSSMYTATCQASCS
Nature of the assay: hGLP1R CreLuc reporter gene assay in 0.5% and 100% plasma. An outline of the steps: (§1)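 HEK-293 cells co-expressing GLP-1 or NPY2 receptor and CHO cells expressing GIP receptor, each carrying a CRE-driven luciferase reporter, were stimulated with peptides for 4 hours at 37 °C. Luminescence was read after Bright-Glo addition. EC50 came from 8-point, four-decade curves fitted by variable-slope non-linear regression.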

The target in a further assay is T2, hNPY2R (Homo sapiens, UniProt P49146).
T2 construct: expressed in transfected cells; host or cells: HEK-293 cells carrying a CRE-luciferase reporter gene
T2 sequence (P49146 1-381): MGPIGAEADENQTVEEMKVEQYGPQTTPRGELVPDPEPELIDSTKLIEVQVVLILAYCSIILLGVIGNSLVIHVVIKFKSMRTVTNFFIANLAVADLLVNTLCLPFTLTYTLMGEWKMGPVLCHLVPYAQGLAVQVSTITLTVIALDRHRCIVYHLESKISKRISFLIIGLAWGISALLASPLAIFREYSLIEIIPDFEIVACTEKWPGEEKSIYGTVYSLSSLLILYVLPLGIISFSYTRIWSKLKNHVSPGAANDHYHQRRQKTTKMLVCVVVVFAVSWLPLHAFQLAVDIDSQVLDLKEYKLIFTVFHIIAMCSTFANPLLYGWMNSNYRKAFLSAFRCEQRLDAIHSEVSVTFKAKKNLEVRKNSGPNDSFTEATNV
The experiment in a line: hNPY2R CreLuc reporter gene assay in 0.5% and 100% plasma. A digest of the protocol: as §1

A further assay has as its target T3, hGIPR (Homo sapiens, UniProt P48546).
T3 construct: expressed in transfected cells; host or cells: CHO cells carrying a CRE-luciferase reporter gene
T3 sequence (P48546 22-466): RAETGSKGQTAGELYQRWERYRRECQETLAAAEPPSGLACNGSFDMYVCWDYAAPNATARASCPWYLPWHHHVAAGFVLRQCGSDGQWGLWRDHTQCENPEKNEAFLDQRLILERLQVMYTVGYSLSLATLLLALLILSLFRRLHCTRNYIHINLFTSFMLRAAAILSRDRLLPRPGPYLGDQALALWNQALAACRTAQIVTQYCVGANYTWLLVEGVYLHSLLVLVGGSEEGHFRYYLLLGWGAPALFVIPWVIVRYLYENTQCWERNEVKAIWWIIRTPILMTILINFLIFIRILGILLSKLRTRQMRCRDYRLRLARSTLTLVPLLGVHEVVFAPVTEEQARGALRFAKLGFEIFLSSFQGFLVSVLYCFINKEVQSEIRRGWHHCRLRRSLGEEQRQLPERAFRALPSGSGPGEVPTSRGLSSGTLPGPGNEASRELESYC
The experiment in a line: hGIPR CreLuc reporter gene assay in 0.5% and 100% plasma. An outline of the steps: as §1

The mark [1] stands for this setting: 0.5% human plasma, read-out: hGLP1R 0.5% hP.
[2] abbreviates: 100% human plasma, read-out: hGLP1R 100% hP.
Where [3] appears, read: 0.5% human plasma, read-out: hNPY2R 0.5% hP.
Setting [4] is: 0.5% human plasma, read-out: hGIPR 0.5% hP.
Where [5] appears, read: 100% human plasma, read-out: hGIPR 100% hP.
Where [6] appears, read: 100% human plasma, read-out: hNPY2R 100% hP.

Like-named read-outs stand apart in the source and are kept apart here. Starred links: 1 amine or outer side, 2 acyl side, 3 side chain; linkers in the order of their positions; H or OH if unused. Positions of bridges follow the written chain, without caps; N, C: chain ends. Non-standard residues stand in square brackets, D forms with d. Groups on a side chain read outwards from the residue. Chains are numbered I, II in the order given. No end group written: not given here. *: point of attachment. C20 diacid = O=C(O)CCCCCCCCCCCCCCCCCCC(=O)*; C18 diacid = O=C(O)CCCCCCCCCCCCCCCCC(=O)*; γGlu = O=C(O)[C@H](CCC(=O)[*:2])N[*:1]; εLys = N[C@@H](CCCCN[*:1])C(=O)[*:2]; AEEA = NCCOCCOCC(=O)O; Aib = CC(C)(N)C(=O)O

Take “H-Y[Aib]EGTFTSDYSI[Aib]LELQAQ[Aib]AFVEWLIK([εLys-γGlu-γGlu-γGlu-γGlu-γGlu-γGlu-C20 diacid])GGPSSGASLRHYYNWLTRQRY-NH2 [Compound 209, Y-Aib-E-G-T-F-T-S-D-Y-S-I-Aib-L-E-L-Q-A-Q-Aib-A-F-V-E-W-L-I-K(1,3)-GGPSSGASLRHYYNWLTRQRY-NH2.C20DA-gGlu-gGlu-gGlu-gGlu-gGlu-gGlu-eLys(1,2)]”: the EC50 turned out to be 480 pM at hGLP1R (setting [1]), 16700 pM at hGLP1R (setting [2]), 35200 pM on hNPY2R (setting [3]) and 810 pM at hGIPR (setting [4]).
As to “H-Y[Aib]EGTFTSDYSI[Aib]LERQAQ[Aib]AFVEWLIK([εLys-γGlu-γGlu-γGlu-γGlu-γGlu-γGlu-C20 diacid])GGPSSGASLRHYYNWLTRQRY-NH2 [Compound 131, Y-Aib-E-G-T-F-T-S-D-Y-S-I-Aib-L-E-R-Q-A-Q-Aib-A-F-V-E-W-L-I-K(1,3)-GGPSSGASLRHYYNWLTRQRY-NH2.C20DA-gGlu-gGlu-gGlu-gGlu-gGlu-gGlu-eLys(1,2)]”, the EC50 was 110 pM at hGLP1R (setting [1]), 18200 pM at hNPY2R (setting [3]), 350 pM on hGIPR (setting [4]) and 2940 pM at hGIPR (setting [5]).
As to “H-Y[Aib]EGTFTSDYSI[Aib]LESQAQ[Aib]AFVEWLIK([εLys-γGlu-γGlu-γGlu-γGlu-γGlu-γGlu-C20 diacid])GGPSSGASLRHYYNWLTRQRY-NH2 [Compound 121, Y-Aib-E-G-T-F-T-S-D-Y-S-I-Aib-L-E-S-Q-A-Q-Aib-A-F-V-E-W-L-I-K(1,3)-GGPSSGASLRHYYNWLTRQRY-NH2.C20DA-gGlu-gGlu-gGlu-gGlu-gGlu-gGlu-eLys(1,2)]”, the EC50 on hGLP1R (setting [1]) is 180 pM; at hNPY2R (setting [3]), 23800 pM; on hGIPR (setting [4]), 650 pM.
Take “I: H-Y[Aib]EGTFTSDYSI[Aib]LEKQAQ[Aib]AFVQWLIKGGPEEGASLRHYYNWLTRQRY-NH2 / II: {C18 diacid}-EEEEE[εLys] (amide I:28-II:C) [Compound 155, Y-Aib-E-G-T-F-T-S-D-Y-S-I-Aib-L-E-K-Q-A-Q-Aib-A-F-V-Q-W-L-I-K(1,3)-GGPEEGASLRHYYNWLTRQRY-NH2.C18DA-E-E-E-E-E-eLys(1,2)]”: the EC50 on hGLP1R (setting [1]) stood at 150 pM; at hGLP1R (setting [2]), 7180 pM; at hNPY2R (setting [3]) it was 17000 pM; at hGIPR (setting [4]), 140 pM; at hGIPR (setting [5]) it was 1430 pM.
For “I: H-Y[Aib]EGTFTSDYSI[Aib]LEKQAQ[Aib]AFVQWLIKGGPESGASLRHYYNWLTRQRY-NH2 / II: {C18 diacid}-EEEEE[εLys] (amide I:28-II:C) [Compound 63, Y-Aib-E-G-T-F-T-S-D-Y-S-I-Aib-L-E-K-Q-A-Q-Aib-A-F-V-Q-W-L-I-K(1,3)-GGPESGASLRHYYNWLTRQRY-NH2.C18DA-E-E-E-E-E-eLys(1,2)]”, the EC50 at hGLP1R (setting [1]) is 80 pM; at hNPY2R (setting [3]), 15200 pM; at hGIPR (setting [4]), 130 pM; at hGIPR (setting [5]), 890 pM.
As for “I: H-Y[Aib]EGTFTSDYSI[Aib]LEKQAQ[Aib]AFVQWLIKGGPSEGASLRHYYNWLTRQRY-NH2 / II: {C18 diacid}-EEEEEE (amide I:28-II:C) [Compound 264, Y-Aib-E-G-T-F-T-S-D-Y-S-I-Aib-L-E-K-Q-A-Q-Aib-A-F-V-Q-W-L-I-K(1,3)-GGPSEGASLRHYYNWLTRQRY-NH2.C18DA-E-E-E-E-E-E(1,2)]”, the EC50 at hGLP1R (setting [1]) amounted to 110 pM; on hGLP1R (setting [2]), 3950 pM; on hNPY2R (setting [3]) it was 16700 pM; at hGIPR (setting [4]), 280 pM; at hGIPR (setting [5]), 1820 pM.
For “I: Y[Aib]EGTFTSDYSI[Aib]LEKQAQ[Aib]AFVQWLIKGGPSEGASLRHYYNWLTRQRY-NH2 / II: {C20 diacid}-EEEEE[εLys] (amide I:28-II:C) [Compound 240, Y-Aib-E-G-T-F-T-S-D-Y-S-I-Aib-L-E-K-Q-A-Q-Aib-A-F-V-Q-W-L-I-K(1,3)-GGPSEGASLRHYYNWLTRQRY-NH2.C20DA-E-E-E-E-E-eLys(1,2)]”, the EC50 at hGLP1R (setting [1]) came to 140 pM; on hGLP1R (setting [2]), 6740 pM; at hNPY2R (setting [3]), 10700 pM; at hGIPR (setting [4]) it was 330 pM; on hGIPR (setting [5]), 1970 pM.
Regarding “Y[Aib]EGTFTSDYSI[Aib]LEKQAE[Aib]AFVEWLIK([AEEA-AEEA-γGlu-γGlu-γGlu-γGlu-C18 diacid])GGPSSGASLRHYYNWLTRQRY-NH2 [Compound 150, Y-Aib-E-G-T-F-T-S-D-Y-S-I-Aib-L-E-K-Q-A-E-Aib-A-F-V-E-W-L-I-K(1,3)-GGPSSGASLRHYYNWLTRQRY-NH2.C18DA-gGlu-glu-Glu-Glu-OEG-OEG(1,2)]”, the EC50 on hGLP1R (setting [1]) is 310 pM; at hNPY2R (setting [3]) it was 16700 pM; at hGIPR (setting [4]), 270 pM.
On to “Y[Aib]EGTFTSDYSI[Aib]LEKQAQ[Aib]AFVEWLIK([AEEA-AEEA-γGlu-γGlu-γGlu-C18 diacid])GGPSEGASLRHYYNWLTRQRY-NH2 [Compound 299, Y-Aib-E-G-T-F-T-S-D-Y-S-I-Aib-L-E-K-Q-A-Q-Aib-A-F-V-E-W-L-I-K(1,3)-GGPSEGASLRHYYNWLTRQRY-NH2.C18DA-gGlu-gGlu-gGlu-OEG-OEG(1,2)]”, for which the EC50 is 80 pM on hGLP1R (setting [1]); 11000 pM on hNPY2R (setting [3]); 31600 pM at hNPY2R (setting [6]); 400 pM on hGIPR (setting [4]); 710 pM at hGIPR (setting [5]).
As to “Y[Aib]EGTFTSDYSI[Aib]LEKQAQ[Aib]AFVEWLIK([AEEA-AEEA-γGlu-γGlu-γGlu-γGlu-γGlu-C20 diacid])GGPSSPASLRHYYNWLTRQRY-NH2 [Compound 120, Y-Aib-E-G-T-F-T-S-D-Y-S-I-Aib-L-E-K-Q-A-Q-Aib-A-F-V-E-W-L-I-K(1,3)-GGPSSPASLRHYYNWLTRQRY-NH2.C20DA-gGlu-gGlu-gGlu-gGlu-gGlu-OEG-OEG(1,2)]”, the EC50 on hGLP1R (setting [1]) turned out to be 110 pM; at hNPY2R (setting [3]), 10700 pM; on hNPY2R (setting [6]), 39200 pM; on hGIPR (setting [4]), 340 pM; on hGIPR (setting [5]), 1440 pM.
Regarding “Y[Aib]EGTFTSDYSI[Aib]LEKQAQ[Aib]AFVEWLIK([εLys-γGlu-γGlu-γGlu-γGlu-γGlu-C18 diacid])GGPSEGASLRHYYNWLTRQRY-NH2 [Compound 295, Y-Aib-E-G-T-F-T-S-D-Y-S-I-Aib-L-E-K-Q-A-Q-Aib-A-F-V-E-W-L-I-K(1,3)-GGPSEGASLRHYYNWLTRQRY-NH2.C18DA-gGlu-gGlu-glu-gGlu-gGlu-eLys(1,2)]”, the EC50 at hGLP1R (setting [1]) amounted to 140 pM; on hNPY2R (setting [3]) it was 10900 pM; on hGIPR (setting [4]), 300 pM; at hGIPR (setting [5]), 980 pM.
The corresponding values for “Y[Aib]EGTFTSDYSI[Aib]LEKQAQ[Aib]AFVEWLIK([εLys-γGlu-γGlu-γGlu-γGlu-γGlu-C20 diacid])GGPESPASLRHYYNWLTRQRY-NH2 [Compound 70, Y-Aib-E-G-T-F-T-S-D-Y-S-I-Aib-L-E-K-Q-A-Q-Aib-A-F-V-E-W-L-I-K(1,3)-GGPESPASLRHYYNWLTRQRY-NH2.C20DA-gGlu-gGlu-gGlu-gGlu-gGlu-eLys(1,2)]” are 300 pM, 16200 pM, 280 pM and 2620 pM.
Turning to “Y[Aib]EGTFTSDYSI[Aib]LEKQAQ[Aib]AFVQWLIK([AEEA-AEEA-γGlu-γGlu-γGlu-γGlu-C20 diacid])GGPEEPASLRHYYNWLTRQRY-NH2 [Compound 77, Y-Aib-E-G-T-F-T-S-D-Y-S-I-Aib-L-E-K-Q-A-Q-Aib-A-F-V-Q-W-L-I-K(1,3)-GGPEEPASLRHYYNWLTRQRY-NH2.C20DA-gGlu-gGlu-gGlu-gGlu-OEG-OEG(1,2)]”, the EC50 at hGLP1R (setting [1]) was determined as 240 pM; on hNPY2R (setting [3]), 13700 pM; on hNPY2R (setting [6]) it was 46300 pM; on hGIPR (setting [4]), 320 pM.
